These results are taken from ChEMBL document CHEMBL1150661, “Panepophenanthrin, from a mushroom strain, a novel inhibitor of the ubiquitin-activating enzyme” (J Nat Prod, 2002).

The target in the assay is T1, Ubiquitin-like modifier-activating enzyme 1 (Homo sapiens, UniProt P22314).
T1 sequence (P22314 whole entry): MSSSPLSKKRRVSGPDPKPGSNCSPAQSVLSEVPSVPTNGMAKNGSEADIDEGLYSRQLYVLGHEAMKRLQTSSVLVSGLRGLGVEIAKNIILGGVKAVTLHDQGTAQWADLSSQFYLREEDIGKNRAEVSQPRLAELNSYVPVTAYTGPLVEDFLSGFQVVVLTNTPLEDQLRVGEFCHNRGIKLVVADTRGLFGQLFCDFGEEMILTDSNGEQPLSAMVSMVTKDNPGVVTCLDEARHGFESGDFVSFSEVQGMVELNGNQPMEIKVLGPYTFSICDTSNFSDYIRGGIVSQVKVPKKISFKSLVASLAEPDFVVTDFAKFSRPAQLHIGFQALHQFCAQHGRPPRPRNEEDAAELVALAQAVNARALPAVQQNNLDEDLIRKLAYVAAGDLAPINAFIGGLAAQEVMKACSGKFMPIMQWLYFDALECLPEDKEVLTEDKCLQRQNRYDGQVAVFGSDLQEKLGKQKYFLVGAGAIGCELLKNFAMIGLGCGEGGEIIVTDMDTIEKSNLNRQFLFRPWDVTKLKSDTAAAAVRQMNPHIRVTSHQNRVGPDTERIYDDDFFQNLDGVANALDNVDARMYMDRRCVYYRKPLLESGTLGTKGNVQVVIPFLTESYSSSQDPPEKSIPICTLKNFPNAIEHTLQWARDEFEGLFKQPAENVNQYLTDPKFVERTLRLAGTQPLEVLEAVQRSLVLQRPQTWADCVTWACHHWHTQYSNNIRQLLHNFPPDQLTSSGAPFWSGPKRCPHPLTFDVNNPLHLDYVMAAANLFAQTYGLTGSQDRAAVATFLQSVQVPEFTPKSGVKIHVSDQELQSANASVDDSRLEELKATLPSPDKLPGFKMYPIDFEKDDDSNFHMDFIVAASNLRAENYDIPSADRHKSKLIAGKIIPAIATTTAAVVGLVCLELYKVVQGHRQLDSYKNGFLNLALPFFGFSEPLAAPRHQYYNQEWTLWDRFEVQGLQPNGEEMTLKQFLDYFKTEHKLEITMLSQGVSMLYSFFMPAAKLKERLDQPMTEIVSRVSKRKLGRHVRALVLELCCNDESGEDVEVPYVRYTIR
Kind of assay: Inhibition of human recombinant E1-ubiquitin complex formation.

As a reminder, the IC50 is the midpoint of a concentration-inhibition curve. As for `CC(C)(O)/C=C/[C@@]12[C@H]3[C@@H](O)[C@@H]4O[C@@H]4[C@]1(O)OC(C)(C)[C@@H]2C=C1C(=O)[C@H]2O[C@H]2[C@H](O)[C@H]13` [PANEPOPHENANTHRIN], the IC50 is 40.4 µM.
